From patent publication US20130204017A1, “GLYCERYL ASCORBIC ACID ACYLATED DERIVATIVE OR ITS SALT, PRODUCTION METHOD THEREOF, AND COSMETICS” (SEIWA KASEI COMPANY, LIMITED, priority 2012, published 2013)

Experiments:
[1] = In vivo moisturizing test (stratum corneum water content, forearm); details: 5 g in 100 mL water, pH 7, 0.3 mL on forearm, 10 subjects
Procedure: An in vitro moisturizing test and an in vivo moisturizing test of the glyceryl ascorbic acid acylated derivatives of Examples 1 to 6 were carried out according to the following manner. For comparison, sodium ascorbate, magnesium ascorbyl phosphate, glucosyl ascorbic acid, 3-O-glyceryl ascorbic acid, 2-O-glyceryl ascorbic acid and 3-O-cetyl ascorbic acid were used.
Each test sample (5 g) was dissolved in 100 mL of water, and pH thereof was adjusted to 7 with a dilute sodium hydroxide aqueous solution or a dilute hydrochloric acid aqueous solution to prepare a sample solution. A paper filter of 1 cm×1 cm was placed on a forearm portion and 0.3 mL of the prepared sample solution was applied on this, and covered and fixed by a polyamide film. Then, 3 hours and 8 hours after, the stratum corneum water content at the sample-applied portion was measured using CORNEOMETER CM825 (manufactured by Integral Corporation). The test was carried out with 10 subjects, and evaluated according to the following criterion (evaluation standard).
3: Stratum corneum water content increased by 15% or more, based on the water content before sample application
2: Stratum corneum water content increased by 0 to less than 15%, based on the water content before sample application
1: There was no change or there was a reduction in stratum corneum water content, before and after sample application.
Based on the evaluation results, classification was set as described below.
◯: Total points of 10 subjects is 25 or more
Δ: Total points of 10 subjects is 16 to 24
x: Total points of 10 subjects is 15 or less

[2] = tested on: Normal human dermal fibroblasts; assay: Collagen production evaluation test (Sircol collagen assay); assay type: cell-based; details: sample 100 μM, cultured 48 hours; for activity at 100 µM: Homo sapiens, Fibroblast, read-out: Collagen production promoting effect (collagen production amount, control group is 100%)
Procedure: The collagen production promoting effects of the glyceryl ascorbic acid acylated derivatives of the present invention were evaluated, according to the following procedure. As comparison, arbutin, ascorbic acid, sodium ascorbate, magnesium ascorbyl phosphate, glucosyl ascorbic acid, 3-O-glyceryl ascorbic acid and 2-O-glyceryl ascorbic acid were used like in Test Example 1.
Normal human dermal fibroblasts were regulated with a 10% (v/v) fetal bovine serum (manufactured by Invitrogen)-containing D-MEM so as to give a cell density of 2.5×10^4 cells/well, then, pre-incubation for 24 hours was performed on a 96-well plate. After the medium was removed, a sample regulated with a 5% (v/v) fetal bovine serum-containing D-MEM to a concentration of 100 μM was added to each well, then, cultured for 48 hours at 37° C. and 5% CO2. After completion of culturing, the amount of free collagen was measured using Sircol collagen assay kit (manufactured by Biocolor).
The collagen production amount in applying a sample at a concentration of 100 μM is obtained as % value when the control group is 100%, and the results are shown in Table 4 based on the following standard.

B16 melanoma 4A5 cell = assay: Melanin production suppressing evaluation test (theophylline-induced melanine production); assay type: cell-based, mouse; details: sample at a concentration of 100 μl or less; 0.2 mM theophylline; culturing 3 days
Procedure: As a test for a whitening effect, evaluation of the action of B16 melanoma 4A5 cell on theophylline-induced melanine production was carried out on a glyceryl ascorbic acid acylated derivative of the present invention, according to the following procedure. The same evaluations were carried out also on arbutin, ascorbic acid, sodium ascorbate, magnesium ascorbyl phosphate, glucosyl ascorbic acid, and 3-O-glyceryl ascorbic acid and 2-O-glyceryl ascorbic acid obtained in the Synthesis Examples mentioned above, as comparison.
(1) B16 mouse melanoma 4A5 strain was sowed onto a 48-well plate at a cell density of 2.0×10^4 cells/well. (2) Culturing was performed for 24 hours with Dulbecco's Modified Eagle's medium (manufactured by SIGMA. Hereinafter, abbreviated as D-MEM) containing 10% fetal bovine serum (manufactured by Roshe Diagnostics). Then, it was changed to 0.2 mM theophylline and a 10% fetal bovine serum-containing D-MEM which contains a sample of given concentration. (3) After culturing for 3 days in the co-existence of a sample, the medium was removed using an aspirator. Then, after distilled water was added, cells were broken by an ultrasonic wave. (4) Thereafter, the amount of protein was determined using BCA protein assay kit (manufactured by PIERCE), and the produced amount of melanine was measured by an alkali solubilizing method described later. To the cell-destructed solution was added sodium hydroxide so as to give a final concentration of 2 mol/L and the mixture was dissolved by heating (60° C., 15 minutes), then, the absorbance at 450 nm was measured using a micro plate reader. The melanine amount was calculated from a calibration curve made using synthetic melanine (SIGMA) as a standard. The melanine amount per unit protein was calculated by dividing the melanine amount by the protein amount. (5) The melanine production suppressing rate was calculated according to the following formula.
Melanine production suppressing rate(%)=[1−(A−B)/(C−B)]×100
[wherein, A represents the melanine amount per unit protein (g/g) in adding a sample, B represents the melanine amount per unit protein (g/g) in the normal group, and C represents the melanine amount per unit protein (g/g) in the control group.]
The normal group means the case where neither theophylline nor sample was added.(that is; theophylline(−) and sample(−))
The control group means the case where neither sample was not added but theophylline was added.(that is; theophylline (+) and sample(−))
In the following Tables, the melanine production suppressing rate in applying a sample at a concentration of […] or less is expressed as described below.

[3] = Stability test: odor and color change of 2% aqueous solution stored at 50° C.; assay type: physicochemical; details: pH7, ten panelists
Procedure: Using 2-O-glyceryl-6-O-octanoyl ascorbic acid obtained in Example 2 and 2-O-glyceryl-6-O-octadecanoyl ascorbic acid obtained in Example 9, an evaluation was made on the stability of odor and color change when stored at 50° C. for 4 weeks, according to the following procedure. For comparison, magnesium ascorbyl phosphate, ascorbic acid and 3-O-glyceryl ascorbic acid were used.
Aqueous solutions (2%) of various test samples were adjusted to pH7 with a dilute sodium hydroxide aqueous solution or a dilute hydrochloric acid aqueous solution, and charged into 50 mL screw tubes. The tubes were sealed and stored at 50° C. for 4 weeks. The odor and degree of color change immediately after preparation, after storage for two weeks and after storage for four weeks were evaluated by ten panelists based on the following methods and according to the following criterion.
3: almost no change as compared with that immediately after preparation
2: color change is observed as compared with that immediately after preparation
1: intense color change is observed as compared with that immediately after preparation
Based on the evaluation results, classification was conducted as shown below.
◯: total point of 10 panelists is 25 or more
Δ: total point of 10 panelists is 16 to 24
x: total point of 10 panelists is 15 or less

[4] = storage period 0 (immediately after preparation)

Row | SMILES | activity at 100 µM [2] | Whitening effect (melanine production suppressing rate) (B16 melanoma 4A5 cell) | further results
1 | CCCC(=O)OC[C@H](O)[C@H]1OC(=O)C(OCC(O)CO)=C1O (some centres unmarked) [Example 1, 2-O-glyceryl-6-O-butanoyl ascorbic acid] | 100 to 200% | ◯ (30 to 49%) | in vivo moisturizing (stratum corneum water content) after 3 hours ([1]; 3 hours): ◯ (Total points of 10 subjects is 25 or more); in vivo moisturizing (stratum corneum water content) after 8 hours ([1]; 8 hours): ◯ (Total points of 10 subjects is 25 or more)
2 | O=C1O[C@H]([C@@H](O)CO)C([O-])=C1O.[Na+] [Sodium ascorbate, reference compound] | 100 to 200% | Δ (Less than 30%) | 
3 | CCCCCCCCCCCCCCCCCC(=O)OC[C@H](O)[C@H]1OC(=O)C(OCC(O)CO)=C1O (some centres unmarked) [Example 9, 2-O-glyceryl-6-O-octadecanoyl ascorbic acid] |  | ⊚ (50% or more) | Color change ([3]; storage 2 weeks at 50° C.): ◯ (total point of 10 panelists is 25 or more); Odor ([3]; storage 2 weeks at 50° C.): ◯ (total point of 10 panelists is 25 or more); Color change ([3]; storage 4 weeks at 50° C.): ◯ (total point of 10 panelists is 25 or more); Odor ([3]; storage 4 weeks at 50° C.): ◯ (total point of 10 panelists is 25 or more); Color change [3, 4]: ◯ (total point of 10 panelists is 25 or more); Odor [3, 4]: ◯ (total point of 10 panelists is 25 or more)
4 | CCCCCCCCCCCCCCCC(=O)OC[C@H](O)[C@H]1OC(=O)C(O)=C1OCC(O)CO (some centres unmarked) [Example 22, 3-O-glyceryl-6-O-hexadecanoyl ascorbic acid] | 100 to 200% |  | 
5 | CCCC(=O)OC[C@H](O)[C@H]1OC(=O)C(O)=C1OCC(O)CO (some centres unmarked) [Example 20, 3-O-glyceryl-6-O-butanoyl ascorbic acid] | 100 to 200% |  | 
6 | CCCCCCCC(=O)OC1=C(OCC(O)CO)C(=O)O[C@@H]1[C@@H](O)CO (some centres unmarked) [Example 18, 2-O-glyceryl-3-O-octanoyl ascorbic acid] | 100 to 200% |  | 
7 | CCCCCCCCCCCCCCCC(=O)OCC(O)COC1=C(O)[C@@H]([C@@H](O)COC(=O)CCC)OC1=O (some centres unmarked) [Example 16, 2-O-(3′-O-hexadecanoylglyceryl)-6-O-butanoyl ascorbic acid] |  | ⊚ (50% or more) | 
8 | O=C1O[C@H]([C@@H](O)CO)C([O-])=C1OP(=O)([O-])[O-].O=C1O[C@H]([C@@H](O)CO)C([O-])=C1OP(=O)([O-])[O-].[Mg+2].[Mg+2].[Mg+2] [Magnesium ascorbyl phosphate] |  | Δ (Less than 30%) | Color change ([3]; storage 2 weeks at 50° C.): Δ (total point of 10 panelists is 16 to 24); Odor ([3]; storage 2 weeks at 50° C.): ◯ (total point of 10 panelists is 25 or more); Odor ([3]; storage 4 weeks at 50° C.): ◯ (total point of 10 panelists is 25 or more); Color change [3, 4]: ◯ (total point of 10 panelists is 25 or more); Odor [3, 4]: ◯ (total point of 10 panelists is 25 or more); Collagen production promoting effect (collagen production amount, control group is 100%) [2]: + (100 to 200%)
9 | CCCC(=O)OCC(O)COC1=C(O)[C@@H]([C@@H](O)COC(=O)CCC)OC1=O (some centres unmarked) [Example 11, 2-O-(3′-O-butanoylglyceryl)-6-O-butanoyl ascorbic acid] |  | ◯ (30 to 49%) | 
10 | CCCCCCCC(=O)OCC(O)COC1=C(O)[C@@H]([C@@H](O)COC(=O)CCC)OC1=O (some centres unmarked) [Example 15, 2-O-(3′-O-octanoylglyceryl)-6-O-butanoyl ascorbic acid] | 100 to 200% |  | 
11 | OC[C@H]1O[C@@H](Oc2ccc(O)cc2)[C@H](O)[C@@H](O)[C@@H]1O [Arbutin, reference compound] | < 100% | ⊚ (50% or more) | 
12 | CCCCCCCCCCCCCC(=O)OC[C@H](O)[C@H]1OC(=O)C(OCC(O)CO)=C1O (some centres unmarked) [Example 7, 2-O-glyceryl-6-O-tetradecanoyl ascorbic acid] |  | ⊚ (50% or more) | 
13 | CCCCCCCCCCCC(=O)OCC(O)COC1=C(O)C(=O)O[C@@H]1[C@@H](O)COC(=O)CCC (some centres unmarked) [Example 23, 3-O-(3′-O-dodecanoylglyceryl)-6-O-butanoyl ascorbic acid] | 100 to 200% |  | 
14 | CCCCCCCCCCCC(=O)OC[C@H](O)[C@H]1OC(=O)C(OCC(O)COC(=O)CCC)=C1O (some centres unmarked) [Example 17, 2-O-(3′-O-butanoylglyceryl)-6-O-dodecanoyl ascorbic acid] | 100 to 200% |  | 
15 | O=C1O[C@H]([C@@H](O)CO)C(O)=C1O [Ascorbic acid] | 100 to 200% | Δ (Less than 30%) | Odor ([3]; storage 2 weeks at 50° C.): Δ (total point of 10 panelists is 16 to 24); Color change [3, 4]: ◯ (total point of 10 panelists is 25 or more); Odor [3, 4]: ◯ (total point of 10 panelists is 25 or more)
16 | CCCCCCCC/C=C\CCCCCCCC(=O)OC[C@H](O)[C@H]1OC(=O)C(OCC(O)CO)=C1O (some centres unmarked) [Example 10, 2-O-glyceryl-6-O-oleoyl ascorbic acid] |  | ⊚ (50% or more) | 
17 | CCCC(=O)OCC(O)COC1=C(OC(=O)CCC)[C@@H]([C@@H](O)COC(=O)CCC)OC1=O (some centres unmarked) [Example 13, 2-O-(3′-O-butanoylglyceryl)-3,6-di-O-butanoyl ascorbic acid] | 100 to 200% | ⊚ (50% or more) | 
18 | CCCCCCCC(=O)OC[C@H](O)[C@H]1OC(=O)C(O)=C1OCC(O)CO (some centres unmarked) [Example 21, 3-O-glyceryl-6-O-octanoyl ascorbic acid] |  | ⊚ (50% or more) | 
19 | CCCCCCCCCCCC(=O)OC1=C(OCC(O)CO)C(=O)OC1C(O)COC(=O)CCCCCCC (centres unmarked) [Example 19, 2-O-glyceryl-3-O-dodecanoyl-6-O-octanoy ascorbic acid] |  | ⊚ (50% or more) | 
